“Also recorded” adds a separate entry of the source. Where a SMILES comes first, the peptide text is derived from it. [ ]: non-standard residue; d: D form.

The text below walks through data of patent US9701675B2, “Activation of TRPV4 ion channel by physical stimuli and critical role for TRPV4 in organ-specific inflammation and itch” (Duke University, priority 2012, dated 2017).

In test [1] the target is T1, TRPV4 (Mus musculus, UniProt Q9EPK8).
T1 construct: endogenous in cells; host or cells: primary mouse keratinocytes (WT 1° MK)
T1 sequence (Q9EPK8 whole entry): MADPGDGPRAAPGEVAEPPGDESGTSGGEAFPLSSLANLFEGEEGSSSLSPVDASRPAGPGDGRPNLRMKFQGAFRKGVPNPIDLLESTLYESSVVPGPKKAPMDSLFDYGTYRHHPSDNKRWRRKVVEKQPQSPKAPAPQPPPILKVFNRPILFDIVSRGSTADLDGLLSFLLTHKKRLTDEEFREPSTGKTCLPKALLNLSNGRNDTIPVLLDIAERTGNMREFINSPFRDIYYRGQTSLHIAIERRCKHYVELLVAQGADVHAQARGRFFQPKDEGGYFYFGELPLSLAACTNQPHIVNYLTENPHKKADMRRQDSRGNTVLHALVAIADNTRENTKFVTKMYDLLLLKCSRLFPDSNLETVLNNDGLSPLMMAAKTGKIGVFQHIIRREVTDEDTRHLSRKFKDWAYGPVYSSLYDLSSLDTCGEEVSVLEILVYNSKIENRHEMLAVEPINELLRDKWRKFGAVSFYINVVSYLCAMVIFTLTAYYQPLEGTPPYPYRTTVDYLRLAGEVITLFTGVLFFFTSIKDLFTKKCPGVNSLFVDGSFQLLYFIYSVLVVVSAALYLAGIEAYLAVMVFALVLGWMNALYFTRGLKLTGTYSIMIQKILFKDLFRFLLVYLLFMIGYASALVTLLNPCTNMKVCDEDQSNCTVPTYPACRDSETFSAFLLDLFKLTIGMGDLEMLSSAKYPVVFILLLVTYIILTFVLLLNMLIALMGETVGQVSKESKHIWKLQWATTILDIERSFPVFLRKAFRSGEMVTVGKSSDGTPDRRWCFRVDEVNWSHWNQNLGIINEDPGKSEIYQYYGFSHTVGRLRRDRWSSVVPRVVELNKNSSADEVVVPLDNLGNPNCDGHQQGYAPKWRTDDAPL
In words: 4α-PDD-evoked Ca++ signaling in 1° MK (fura-2 ratiometric imaging). The test is classed as cell-based. As to the method: (§1) Ca++ imaging of mouse 1° MK in response to chemical activation of TRPV4 was conducted after loading with 2 μM fura2-AM, following a ratiometric Ca2+ imaging protocol with 340/380 nm […] for dual excitation. Ratios of emissions were acquired at 0.5 Hz. ΔR/R0 was determined as the fraction of the increase of a given ratio over baseline ratio, divided by baseline ratio. For stimulation of cells with UVB, where fura-2 was not suitable because of the proximity of stimulation with 340/380 nm and 295 nm, 2 μM fluo4-AM was used instead. Ca++ imaging was carried out at 488 nm excitation, acquisition of emissions at 0.5 Hz, expressed as ΔF/F0. In the custom-built UV optical system, UV LEDs were capped with a ball lens, a transparent optical window in the shape of a hemispherical lens (FIG. 2B). The LED output optical beam focused at 15-20 mm from the lens, with a spot diameter of approximately 1.5-2.0 mm (FIG. 2C). […] The thermal equilibration stage was set for physiological temperature. We confirmed the non-thermal nature of UVB stimulation using the customized 295 nm LED device in a dedicated experiment (FIG. 2D), thus confirming the specific modality of stimulation as UVB.

Test [2] deals with primary mouse epidermal keratinocytes (1° MK). The test can be described thus: UVB-evoked Ca++ signaling in primary mouse keratinocytes (fluo-4 imaging). The test is classed as cell-based. The conditions noted are these: for effect on ET1-augmented, UVB-induced Ca++ transients in 1° MK: UVB and ET1 co-exposure; for effect on UVB-evoked Ca++ signal in 1° MK: concentration not given (IPP: same dose as against camphor). As to the method: Ca++ imaging of 1° MK was conducted following routine procedures. For UVB stimulation, a customized device was built. The system comprised a printed circuit board for electrical interconnects and mechanical support and an ultraviolet light-emitting diode (UV LED).
The operating wavelength was 295 nm (FIG. 2A), with a full-width half-max of 12 nm. The optical power was 500 mW. The focal point was aimed at the plane of the upper surface of the quartz coverslip, which was used to minimize UV absorption along the optical path towards the cells (FIG. 2A-C). The optical intensity at the focal point was estimated to be 150 mW/mm^2.
as §1, with “temperature.” for “temperature. We confirmed the non-thermal nature of UVB stimulation using the customized 295 nm LED device in a dedicated experiment (FIG. 2D), thus confirming the specific modality of stimulation as UVB.”

In test [3] the test system is ET1. In words: ET1 secretion by non-stimulated 1° MK (ELISA of supernatant). The test is classed as cell-based, mouse. The conditions noted are these: two doses of GSK205, dose-dependent.
Test [4] has as its system ET1. In words: ET1 expression by UVB-exposed 1° MK (immunocytochemistry). The test is classed as cell-based, mouse. The conditions noted are these: for ET1 immunoreactivity in UVB-exposed 1° MK: immunolabeling 24 hours after UVB-LED; for ET1 expression in UVB-exposed 1° MK, densitometric quantification: vs. control-treated and UVB-exposed cells, n≧25 cells, p<0.05. As to the method: 1° MK were exposed to UVB using the UV optical system (295 nm LED). 24 hours later the cells were fixed and fluorescently immunolabeled for ET1. Digital images were captured and subjected to morphometry.
Mouse keratinocytes were cultured on collagen coated quartz coverslips and then stimulated from the bottom using the previously mentioned UV optical system using the 295 nm LED. 24 hours later the cells were fixed in 4% formaldehyde in PBS for 20 minutes, permeabilized with 0.1% Triton X-100 in PBS for 10 minutes, washed, then blocked in 10% normal goat serum in PBS for 45 minutes. Coverslips were incubated overnight with primary antibody mouse anti-ET1 (1:200; Abcam), washed three times in PBS and incubated with secondary antibody for 2 hours at 25° C. Coverslips were washed three times in PBS, once with double-distilled H2O. Digital images were captured using a 40× immersion lens on the BX61 Olympus upright microscope. Morphometric analysis was conducted using ImageJ freeware with tailored regions-of-interest.

The target of test [5] is T1, TRPV4. In words: GSK101-evoked Ca++ transient in 1° MK (fura-2). The class given is cell-based. How it is done: as §1
Another test concerns the target T2, TRPV3 (Mus musculus, UniProt Q8K424).
T2 construct: endogenous in cells; host or cells: primary mouse keratinocytes (1° MK)
T2 sequence (Q8K424 1-791): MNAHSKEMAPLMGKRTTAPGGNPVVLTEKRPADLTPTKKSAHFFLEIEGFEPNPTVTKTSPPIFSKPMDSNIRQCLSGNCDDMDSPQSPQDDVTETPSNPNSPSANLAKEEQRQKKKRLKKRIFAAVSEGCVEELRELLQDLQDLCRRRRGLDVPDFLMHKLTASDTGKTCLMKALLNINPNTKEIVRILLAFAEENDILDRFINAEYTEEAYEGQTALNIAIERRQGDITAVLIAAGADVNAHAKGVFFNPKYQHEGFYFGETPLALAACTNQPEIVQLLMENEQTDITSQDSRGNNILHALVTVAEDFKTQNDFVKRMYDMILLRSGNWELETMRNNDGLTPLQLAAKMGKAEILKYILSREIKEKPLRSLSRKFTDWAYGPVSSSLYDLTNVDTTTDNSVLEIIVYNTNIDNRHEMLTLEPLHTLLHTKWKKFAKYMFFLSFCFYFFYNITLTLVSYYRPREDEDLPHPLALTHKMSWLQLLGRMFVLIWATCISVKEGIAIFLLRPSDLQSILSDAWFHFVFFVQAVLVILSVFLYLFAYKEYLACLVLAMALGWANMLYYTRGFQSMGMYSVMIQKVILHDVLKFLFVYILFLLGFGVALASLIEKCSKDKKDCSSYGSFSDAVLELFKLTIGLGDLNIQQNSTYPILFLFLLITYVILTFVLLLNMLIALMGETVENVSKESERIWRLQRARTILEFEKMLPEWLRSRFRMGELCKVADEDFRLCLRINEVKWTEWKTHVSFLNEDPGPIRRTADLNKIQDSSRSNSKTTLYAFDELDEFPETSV
The test can be described thus: TRPV3 activation experiment: camphor-evoked Ca++ transient in keratinocytes. The class given is cell-based.

For another test, the system named is mice. The test can be described thus: Nocifensive behavior in response to ET1 footpad injection (von Frey). The class given is in vivo, mouse. As to the method:
ET1 injections: After determining base-line withdrawal thresholds, each animal received an intraplantar injection of 10 μL 100 nM ET-1 plus contralateral vehicle. Thresholds were again evaluated 1 hour after injection.
Hindpaw mechanical withdrawal thresholds were determined by the automated von Frey hair method, using a 0.5 mm diameter stainless steel filament, part of an automated plantar touch stimulator (Ugo Basile, Modena, Italy). Relevant detail included pre-test acclimatization in a quiet room for 30 min, conducting the test at the same time of day and blinded observers. The stimulus was delivered to the hindpaw, automatically discontinued upon withdrawal, and its intensity recorded automatically. 6-8 trials per animal were conducted, with equal exposure of both hindpaws, leading to an average withdrawal threshold. Results are reported as Δ-threshold, which was calculated by subtracting post-treatment from pre-treatment measurements, expressed as % or relative to 1.0.

With `CCCCCCCCCC(=O)O[C@@H]1[C@@H](C)[C@@]2(O)[C@@H](C=C(CO)C[C@@]3(O)C(=O)C(C)=C[C@@H]23)[C@@H]2C(C)(C)[C@]12OC(=O)CCCCCCCCC` [4α-PDD, 4α-phorbol 12,13 didecanoate], on TRPV4 [1] (4α-PDD), the “Ca++ transients evoked in 1° MK” value was “Ca++ transients”.

Take `CC(C)C[C@@H]1NC(=O)[C@@H](C(C)C)NC(=O)[C@@H]2CCCN2C(=O)[C@@H](CC(=O)O)NC(=O)[C@@H](Cc2c[nH]c3ccccc23)NC1=O` [BQ123] (cyclo(L[dW][dD]P[dV])): the “effect on ET1-augmented, UVB-induced Ca++ transients in 1° MK” value in test [2] was “attenuated”.

Take `CCCC[C@@H](NC(=O)[C@@H](Cc1cn(C(=O)OC)c2ccccc12)NC(=O)[C@H](CC(C)(C)C)NC(=O)N1[C@H](C)CCC[C@@H]1C)C(=O)O` [BQ788]: the “effect on ET1-augmented, UVB-induced Ca++ transients in 1° MK” value in test [2] was “attenuated”.

For `O=C(O)C(Cc1ccc2c(c1)oc1ccccc12)NCP(=O)(O)O` (stereo not shown) [CGS35066], in test [2], the “effect on UVB-evoked Ca++ signal in 1° MK” value was “significantly diminished; also recorded: significant attenuation”. The “ET1 secretion by non-stimulated 1° MK” value with ET1 [3] is recorded as “down-regulation”. Moreover, in the test with ET1 [4], the “ET1 immunoreactivity in UVB-exposed 1° MK” value (shortened to “ET1 immunoreactivity”) is “significant down-regulation” and the “ET1 expression in UVB-exposed 1° MK, densitometric quantification” value (“ET1 expression in UVB-exposed 1° MK” below) is reported as “significant down-regulation”.

For `CC(C)C[C@H](NC(=O)c1cc2ccccc2s1)C(=O)N1CCN(C(=O)[C@H](CO)NS(=O)(=O)c2ccc(Cl)cc2Cl)CC1` [GSK101], at TRPV4 [5] (5 nM GSK101, WT 1° MK), the “Ca++ transient evoked in 1° MK” value was “directly stimulate TRPV4; also recorded: Ca++ transient”.

Turning to `C=C(C)CCO[P@@](=O)(O)OP(=O)(O)O` [IPP, isopentenyl pyrophosphate], the “effect on UVB-evoked Ca++ signal in 1° MK” value in test [2] is recorded as “no effect; also recorded: not inhibited”.

On to `CC(C)NCCN(C(C)C)S(=O)(=O)c1ccc(Cl)cc1Cl` [RN1734], for which the “ET1 secretion by non-stimulated 1° MK” value with ET1 [3] is recorded as “significant down-regulation”. In addition, in the test on ET1 [4], the “ET1 immunoreactivity” value is listed as “diminished; also recorded: significant down-regulation” and the “ET1 expression in UVB-exposed 1° MK” value is recorded as “significant down-regulation”.

With `COc1ccc2c(c1)CC[C@@H]1[C@@H]2CC[C@]2(C)[C@@H](NCCCCCCN3C(=O)C=CC3=O)CC[C@@H]12` [U73122], the “effect on UVB-evoked Ca++ signal in 1° MK” value in test [2] was “virtually eliminated; also recorded: strongly reduced”. For the same compound, the “ET1 secretion by non-stimulated 1° MK” value in the test with ET1 [3] was “down-regulation”. Besides, in the test with ET1 [4], the “ET1 immunoreactivity” value is “dampened; also recorded: significant down-regulation” and the “ET1 expression in UVB-exposed 1° MK” value was “significant down-regulation”.

As for `CC12CCC(CC1=O)C2(C)C` (stereo not shown) [camphor, Camphor], the “induction of a Ca++ transient” value on TRPV3 is reported as “Induction of a Ca++ transient”.

Regarding endothelin-1 [ET1], the “effect of ET1 co-exposure on UVB-evoked Ca++ transients in 1° MK” value in test [2] (co-exposure UVB + ET1 peptide) is listed as “significant increase; also recorded: augmentation”. The “effect of ET1 on GSK101-evoked Ca++ signaling” value with TRPV4 [5] (5 nM GSK101, co-exposure to ET1) is recorded as “augmented; also recorded: increase in signal”. Further, in the test with TRPV4 [1] (co-application with 4α-PDD), the “effect of ET1 co-application on 4α-PDD-evoked Ca++ response” value is given as “significant increase”. The “mechanical allodynia after ET1 footpad injection, TRPV4-deficient mice” value in the test on mice (Trpv4−/− and tam-treated iKO mice) is listed as “fail to respond”. In addition, the “mechanical withdrawal thresholds after ET1 footpad injection, control mice” value in the test with mice (WT and oil-treated iKO mice, 10 μL 100 nM ET-1 intraplantar) is recorded as “significantly lowered; also recorded: significant levels of mechanical allodynia”.
